Results published in patent US12692274B2, “Tetrahydroisoquinoline derivatives for the treatment of red blood disorders and inflammatory diseases” (Sanofi, priority 2020, dated 2026).
“And” between values parts separate entries of the source, which are not always exact repeats. Identical values can stand only once.

Experiments:
[1] = tested on: NQO1 activation in BEAS-2B cells; experiment: BEAS-2B cellular MTT assay of NQO1 activation, 0% HSA; assay type: cell-based
Method in brief: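 For the 0% HSA condition, cells were seeded into collagen plates in HSA-free medium. Culture was BEAS-2B in BEBM plus BEGM SingleQuots lacking GA-1000, held under 70% confluence, at a seeding density reaching 95-100% confluence by 48 h.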

[2] = tested on: NQO1 activation in BEAS-2B cells; experiment: BEAS-2B cellular MTT assay of NQO1 activation, 0.3% HSA; assay type: cell-based
Method in brief: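 MTT read-out in BEAS-2B cells grown in BEBM with SingleQuots, no GA-1000, kept below 70% confluence; plates coated with collagen, with 0.3% or 0% HSA medium, seeded to 95-100% confluency at 48 h, 37 °C, 5% CO2.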

[3] = target: HIS-Keap1 full length / Biotin-Nrf2 (16-mer) (Homo sapiens, UniProt Q14145); experiment: biochemical
Sequence of HIS-Keap1 full length / Biotin-Nrf2 (16-mer) (Q14145 whole entry): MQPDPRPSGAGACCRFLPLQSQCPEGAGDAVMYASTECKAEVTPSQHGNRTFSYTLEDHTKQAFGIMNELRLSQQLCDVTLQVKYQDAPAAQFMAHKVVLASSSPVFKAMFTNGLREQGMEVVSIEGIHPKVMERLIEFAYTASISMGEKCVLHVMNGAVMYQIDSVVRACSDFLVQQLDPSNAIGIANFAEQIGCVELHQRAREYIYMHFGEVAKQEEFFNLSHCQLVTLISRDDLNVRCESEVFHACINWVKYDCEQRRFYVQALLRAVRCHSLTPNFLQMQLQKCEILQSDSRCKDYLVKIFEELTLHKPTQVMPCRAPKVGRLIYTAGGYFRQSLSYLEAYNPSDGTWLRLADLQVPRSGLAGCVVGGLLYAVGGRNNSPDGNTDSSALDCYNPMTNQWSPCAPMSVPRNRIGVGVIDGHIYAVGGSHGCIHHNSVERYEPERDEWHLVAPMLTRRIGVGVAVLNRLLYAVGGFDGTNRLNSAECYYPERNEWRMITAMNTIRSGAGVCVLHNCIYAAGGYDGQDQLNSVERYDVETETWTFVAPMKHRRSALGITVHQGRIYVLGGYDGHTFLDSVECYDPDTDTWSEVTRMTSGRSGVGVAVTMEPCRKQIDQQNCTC

[4] = Homo sapiens, serum free, read-out: BEAS EC50 (nM) serum free
[5] = Homo sapiens, BEAS+, read-out: BEAS+ EC50
[6] = Homo sapiens, Serum Free W, read-out: BEAS EC50 (nM) Serum Free W
[7] = Serum Free W, read-out: BEAS EC50 (nM) Serum Free W
[8] = BEAS+ W, read-out: BEAS+ W EC50
[9] = Homo sapiens, BEAS+ W, read-out: BEAS+ W EC50
[10] = serum free, read-out: BEAS EC50 (nM) serum free

SMILES	EC50 [1, 4] [nM]	EC50 [2, 5] [µM]	IC50 [3]	EC50 [1, 6] [nM]	EC50 [1, 7]	EC50 [2, 8]	EC50 [2, 9] [µM]	EC50 [1, 10] [nM]	EC50 ([2]; BEAS+, read-out: BEAS+ EC50) [µM]
Cc1c2ccc3c1nnn3CCCCCCOc1ccc(c(F)c1F)C(=O)N1CCc3ccc(cc3C1)C2CC(=O)O (stereo not drawn) [Compound 318]	20.4	0.0592	0.0008 µM	–	–	–	–	–	–
C[C@H](C(=O)O)[C@@H]1c2ccc(nc2)OCC/C=C/Cc2ccc(cc2)C(=O)N2CCc3ccc1cc3C2 [Compound 47]	–	–	0.0264 µM	26.2	26 nM and 28.7 nM	0.0942 µM and 0.0969 µM	0.14	–	–
Cc1c2ccc3c1nnn3CCCOCCc1ccc(c(F)c1)C(=O)N1CCc3ccc(cc3C1)[C@H]2CC(=O)O [Compound 357]	–	–	0.0114 µM and 0.011 µM	> 1000	969 nM	1.71 µM	1.94	–	–
Cc1c2cnc3c1nnn3CCCCCCc1ccc3c(c1)cc(n3C)C(=O)N1CCc3ccc(cc3C1)C2CC(=O)O (stereo not drawn) [Compound 135]	–	–	0.0009 µM and 0.0012 µM	1.9	1.8 nM	0.0118 µM	0.0189	–	–
Cc1cc2ccc1C(=O)N1CCc3ccc(cc3C1)[C@@H](CC(=O)O)c1cnc(cc1C)OCCCCC2 [Compound 100]	–	–	0.0011 µM and 0.001 µM	1.7	1.6 nM	0.0091 µM	0.008	–	–
Cc1c2ccc3c1nnn3CC/C=C/Cc1ccc(c(F)c1)C(=O)N1CCc3ccc(cc3C1)C2C(C)C(=O)O (stereo not drawn) [Compound 376]	–	–	0.0013 µM and 0.0014 µM	2.1	2.3 nM	0.0045 µM and 0.0055 µM	0.0039	–	–
O=C(O)CC1c2ccc(nc2)OCCCCCc2cc(F)c(c(F)c2)C(=O)N2CCc3ccc1cc3C2 (stereo not drawn) [Compound 187]	9.3	0.022	0.0059 µM and 0.0056 µM	–	–	–	–	8.9	0.0191
Cc1c2ccc3c1nnn3CCCCCCc1ccc(cc1)C(=O)N1CCc3ccc(cc3C1)[C@@H]2[C@H](C)C(=O)O [Compound 175]	53.3	0.104	0.0104 µM and 0.0103 µM	–	–	–	–	53.7	0.125
Cc1c2ccc3c1nnn3CCCCCCc1ccc3c(c1)cc(n3C)C(=O)N1CCc3ccc(cc3C1)[C@@H]2[C@H](C)C(=O)O [Compound 34]	–	–	0.0017 µM and 0.0006 µM	3.6	3.8 nM	0.189 µM	0.19	–	–
Cc1c2ccc3c1nnn3CCCCCc1ccc3c(c1)c(cn3C)C(=O)N1CCc3ccc(cc3C1)C2CC(=O)O (stereo not drawn) [Compound 362, 2-(5,33-dimethyl-2-oxo-1,5,15,16,17-pentazaheptacyclo[22.5.3.26,9.118,22.03,7.015,19.027,31]pentatriaconta-3,6,8,16,18(33),19,21,24(32),25,27(31),34-undecaen-23-yl)acetic Acid]	3250	> 10	0.05 µM and 0.0473 µM	–	–	–	–	3760	–
Cc1c2cnc3c1nnn3CCCCCCOc1cc(F)c(c(F)c1)C(=O)N1CCc3ccc(cc3C1)C2CC(=O)O (stereo not drawn) [Compound 128]	14.2	0.0177	0.001 µM and 0.0014 µM	9.8	7.1 nM	0.0472 µM	0.031	12.2	0.0203
Cc1c2ccc3c1nnn3CCCCCCc1ccc3c(c1)nc(n3C)C(=O)N1CCc3ccc(cc3C1)C2CC(=O)O (stereo not drawn) [Compound 206]	64	0.0899	0.0053 µM and 0.0057 µM	–	–	–	–	38.5	0.119
C[C@@H](C(=O)O)[C@H]1c2ccc3c(c2)CN(CC3)C(=O)c2ccc(cc2)OCCCCCn2nnc3cc1ccc32 [Compound 232]	7.2	0.009	0.0014 µM	–	–	–	–	4.6	0.0083
O=C(O)C[C@H]1c2ccc(nc2)OCCCCCc2ccc(cc2)C(=O)N2CCc3ccc1cc3C2 [Compound 172]	79.2	0.188	0.216 µM and 0.227 µM	–	–	–	–	73	0.263
Cc1cc2ccc1C(=O)N1CCc3ccc(cc3C1)C(CC(=O)O)c1cnc(nc1)OCCCCO2 (stereo not drawn) [Compound 182]	–	–	0.0557 µM and 0.044 µM	> 1000	–	–	> 10	–	–
Cc1c2ccc3c1nnn3CCCCCCc1ccc(cc1F)C(=O)N1CCc3ccc(cc3C1)C2CC(=O)O (stereo not drawn) [Compound 264]	3.7	0.0054	0.0027 µM and 0.0029 µM	–	–	–	–	–	–
Cc1cc2ccc1C(=O)N1CCc3ccc(cc3C1)[C@@H](CC(=O)O)c1ccc3c(c1)nnn3CCCCCCO2 [Compound 327]	52.9	0.179	0.0008 µM and 0.0023 µM	–	–	–	–	46.9	–
Cc1c2cnc3c1nnn3CCCCCc1ccc3c(c1)cc(n3C)C(=O)N1CCc3ccc(cc3C1)C2CC(=O)O (stereo not drawn) [Compound 143]	–	–	0.0007 µM	2.2	2.6 nM	0.0106 µM	0.0103	–	–
Cc1cc2ccc1C(=O)N1CCc3ccc(cc3C1)C(CC(=O)O)c1cnc3c(nnn3CCCCCCO2)c1C (stereo not drawn) [Compound 218]	27.5	0.0293	0.0008 µM	–	–	–	–	39.7	0.0375

SMILES	EC50 [1, 4] [nM]	EC50 [2, 5] [µM]	IC50 [3]	EC50 [1, 6] [nM]	EC50 [1, 7]	EC50 [2, 8]	EC50 [2, 9] [µM]	EC50 [1, 10] [nM]	EC50 ([2]; BEAS+, read-out: BEAS+ EC50) [µM]
Cc1c2cnc3c1nnn3CCCCCCc1ccc(cc1)C(=O)N1CCc3ccc(cc3C1)C2CC(=O)O (stereo not drawn) [Compound 216]	1.8	0.0358	0.0021 µM and 0.0023 µM	–	–	–	–	2.5	0.0282
Cc1c2cnc3c1nnn3CCCCCCOc1cc(F)c(c(F)c1)C(=O)N1CCc3ccc(cc3C1)[C@@H]2CC(=O)O [Compound 207]	–	–	0.0014 µM	23.7	32.1 nM	0.0576 µM	0.0654	–	–
O=C(O)CC1c2ccc3c(c2)CN(CC3)C(=O)c2c(F)cc(cc2F)OCCCCCCn2nnc3cc1ccc32 (stereo not drawn) [Compound 321]	75.7	0.0889	0.0004 µM and 0.0001 µM	–	–	–	–	–	–
Cn1c2cc3cc(ccc31)OCCCCCCn1nnc3cc(ccc31)C(CC(=O)O)c1ccc3c(c1)CN(CC3)C2=O (stereo not drawn) [Compound 310]	698	9.1	0.0003 µM and < 0.0001 µM	–	–	–	–	–	9.57
Cc1cc2ncc1[C@@H](CC(=O)O)c1ccc3c(c1)CN(CC3)C(=O)c1ccc(cc1)CCOCCO2 [Compound 351]	–	–	0.649 µM and 0.619 µM and 0.401 µM and 0.416 µM	> 1000	1780 nM	2.88 µM and 2.8 µM	3.74	–	–
Cc1cc2ccc1C(=O)N1CCc3ccc(cc3C1)C(CC(=O)O)c1cnc(cc1C)OCCCCO2 (stereo not drawn) [Compound 151]	216	0.23	0.0024 µM and 0.0027 µM	–	–	–	–	170	0.121
Cc1cc2cnc1OCC/C=C/Cc1ccc(cc1)C(=O)N1CCc3ccc(cc3C1)[C@@H]2[C@@H](C)C(=O)O [Compound 83]	–	–	4.42 µM and 3.91 µM	> 1000	1780 nM	8.44 µM	> 10	–	–
Cc1c2ccc3c1nnn3CCCCCc1cnc(c(F)c1)C(=O)N1CCc3ccc(cc3C1)C2CC(=O)O (stereo not drawn) [Compound 219]	180	0.228	0.0013 µM and 0.0015 µM	–	–	–	–	208	0.208
Cc1c2ccc3c1nnn3CCCCCCOc1ccc(nc1)C(=O)N1CCc3ccc(cc3C1)C2CC(=O)O (stereo not drawn) [Compound 227]	517	1.13	0.0021 µM	–	–	–	–	568	0.932
Cc1c2ccc3c1nnn3CCCCCCc1ccc(cc1OC(F)F)C(=O)N1CCc3ccc(cc3C1)[C@@H]2CC(=O)O [Compound 37]	–	–	0.001 µM and 0.0008 µM	18.1	18.2 nM	0.0723 µM	0.1	–	–
Cc1cc2ccc1C(=O)N1CCc3ccc(cc3C1)C(CC(=O)O)c1ccc(nc1C)OCCCCO2 (stereo not drawn) [Compound 178]	1160	1.41	0.113 µM and 0.105 µM	–	–	–	–	1140	0.933
COc1cc2ccc1C(=O)N1CCc3ccc(cc3C1)C(CC(=O)O)c1ccc3c(nnn3CCCCC2)c1C (stereo not drawn) [Compound 191]	11.4	0.0205	0.0195 µM and 0.0204 µM	–	–	–	–	18	0.018
Cc1cc2ccc1C(=O)N1CCc3ccc(cc3C1)C(CC(=O)O)c1ccc3c(nnn3CCCCCCO2)c1C (stereo not drawn) [Compound 297]	1.8	0.0029	0.0002 µM	–	–	–	–	–	–
Cc1c2ccc3c1nnn3CCCCCCc1ccc(nc1)C(=O)N1CCc3ccc(cc3C1)C2CC(=O)O (stereo not drawn) [Compound 230]	384	1.09	0.0048 µM	–	–	–	–	471	0.961
Cc1c2ccc3c1nnn3CCCCCOc1ccc(c(F)c1)C(=O)N1CCc3ccc(cc3C1)[C@H]2CC(=O)O [Compound 259]	20.2	0.0476	0.0041 µM	–	–	–	–	18.7	0.0785
Cc1c2ccc3c1nnn3CCCCCCc1ccc(cc1)C(=O)N1CCc3ccc(cc3C1)C2CC(=O)O (stereo not drawn) [Compound 307]	0.4	0.0037	0.0002 µM	–	–	–	–	–	0.0052
Cc1cc2ccc1C(=O)N1CCc3ccc(cc3C1)[C@H]([C@H](C)C(=O)O)c1ccc3c(nnn3CCCOCCO2)c1C [Compound 370]	1480	1.64	0.0043 µM and 0.0042 µM	–	–	–	–	1350	1.71
Cc1c2cnc3c1nnn3CCCC/C=C/Cc1ccc(cc1)C(=O)N1CCc3ccc(cc3C1)[C@@H]2CC(=O)O [Compound 353]	–	–	0.0005 µM	16.8	19.1 nM	0.109 µM	0.0723	–	–
Cc1nc2ccc1C(CC(=O)O)c1ccc3c(c1)CN(CC3)C(=O)c1ccc(cc1)CCCCCO2 (stereo not drawn) [Compound 150]	103	0.164	0.113 µM and 0.106 µM	–	–	–	–	147	0.188
